In the kinase profiling compilation of Christmann-Franck et al. (2016):

Columns and labels:
Assay in all cases: SelectScreen, TR FRET
Details in all cases: compound 5.0 µM
MAPKAPK5 (human) = MAPKAPK5 (human) (UniProt Q8IW41)
[1] = system: EGFR (human), P00533 [L861Q]
NTRK2 (human) = NTRK2 (human) (UniProt Q16620)
AURKA (human) = AURKA (human) (UniProt O14965)
TBK1 (human) = TBK1 (human) (UniProt Q9UHD2)
MAPK1 (human) = MAPK1 (human) (UniProt P28482)
FER (human) = FER (human) (UniProt P16591)
MAP4K2 (human) = MAP4K2 (human) (UniProt Q12851)
SGK3 (human) = SGK3 (human) (UniProt Q96BR1)
RPS6KB1 (human) = RPS6KB1 (human) (UniProt P23443)
PDGFRB (human) = PDGFRB (human) (UniProt P09619)
PRKD1 (human) = PRKD1 (human) (UniProt Q15139)
MAP3K9 (human) = MAP3K9 (human) (UniProt P80192)
GRK4 (human) = GRK4 (human) (UniProt P32298)
AKT3 (human) = AKT3 (human) (UniProt Q9Y243)
GSK3A (human) = GSK3A (human) (UniProt P49840)
PLK1 (human) = PLK1 (human) (UniProt P53350)
FLT3 (human) = FLT3 (human) (UniProt P36888)
CAMK1D (human) = CAMK1D (human) (UniProt Q8IU85)
CSNK1G2 (human) = CSNK1G2 (human) (UniProt P78368)
CSNK2A2 (human) = CSNK2A2 (human) (UniProt P19784)
GRK5 (human) = GRK5 (human) (UniProt P34947)
PHKG2 (human) = PHKG2 (human) (UniProt P15735)
MAPK11 (human) = MAPK11 (human) (UniProt Q15759)
FGFR2 (human) = FGFR2 (human) (UniProt P21802)
MAPKAPK3 (human) = MAPKAPK3 (human) (UniProt Q16644)
MAP4K4 (human) = MAP4K4 (human) (UniProt O95819)
CSNK1G3 (human) = CSNK1G3 (human) (UniProt Q9Y6M4)
PRKACA (human) = PRKACA (human) (UniProt P17612)
PAK4 (human) = PAK4 (human) (UniProt O96013)
CSNK1A1 (human) = CSNK1A1 (human) (UniProt P48729)
EPHA3 (human) = EPHA3 (human) (UniProt P29320)
AKT2 (human) = AKT2 (human) (UniProt P31751)
LYN (human) = LYN (human) (UniProt P07948)
FLT1 (human) = FLT1 (human) (UniProt P17948)
ERBB4 (human) = ERBB4 (human) (UniProt Q15303)
KIT (human) = KIT (human) (UniProt P10721)
MATK (human) = MATK (human) (UniProt P42679)
PRKD3 (human) = PRKD3 (human) (UniProt O94806)
RPS6KA4 KD1 KD2 (human) = RPS6KA4 KD1 KD2 (human) (UniProt O75676)
Chain of RPS6KA4 KD1 KD2 (human) (O75676 whole entry, looked up): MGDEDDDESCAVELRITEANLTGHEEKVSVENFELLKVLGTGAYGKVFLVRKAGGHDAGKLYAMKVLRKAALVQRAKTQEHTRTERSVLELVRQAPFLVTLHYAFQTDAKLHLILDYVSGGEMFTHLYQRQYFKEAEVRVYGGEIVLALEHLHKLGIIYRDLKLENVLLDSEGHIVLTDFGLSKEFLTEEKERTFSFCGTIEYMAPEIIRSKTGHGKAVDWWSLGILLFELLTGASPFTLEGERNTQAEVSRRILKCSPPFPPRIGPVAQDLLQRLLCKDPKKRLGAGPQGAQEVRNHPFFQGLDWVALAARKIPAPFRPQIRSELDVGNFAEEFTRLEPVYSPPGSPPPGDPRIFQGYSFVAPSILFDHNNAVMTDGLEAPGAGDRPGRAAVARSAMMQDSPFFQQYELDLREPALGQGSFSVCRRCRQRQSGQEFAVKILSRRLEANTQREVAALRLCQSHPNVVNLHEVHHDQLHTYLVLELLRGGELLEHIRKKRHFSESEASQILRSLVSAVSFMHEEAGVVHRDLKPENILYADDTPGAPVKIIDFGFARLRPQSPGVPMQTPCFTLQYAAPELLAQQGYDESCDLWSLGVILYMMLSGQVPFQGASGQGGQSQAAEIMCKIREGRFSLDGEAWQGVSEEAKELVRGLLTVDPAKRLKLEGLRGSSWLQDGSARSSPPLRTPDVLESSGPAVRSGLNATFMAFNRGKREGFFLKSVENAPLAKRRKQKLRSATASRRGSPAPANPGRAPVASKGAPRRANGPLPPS

Chain of CSNK1A1 (human) (P48729 whole entry, looked up): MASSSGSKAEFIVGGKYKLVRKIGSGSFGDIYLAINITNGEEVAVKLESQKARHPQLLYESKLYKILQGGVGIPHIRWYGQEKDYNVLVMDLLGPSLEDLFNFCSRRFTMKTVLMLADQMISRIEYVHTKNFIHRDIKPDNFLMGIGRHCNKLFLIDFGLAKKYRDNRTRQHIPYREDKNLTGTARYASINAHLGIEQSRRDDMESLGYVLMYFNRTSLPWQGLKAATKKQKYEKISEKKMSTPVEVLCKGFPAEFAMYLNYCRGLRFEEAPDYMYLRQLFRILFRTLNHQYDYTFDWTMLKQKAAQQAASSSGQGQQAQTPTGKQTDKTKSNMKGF
Chain of CSNK2A2 (human) (P19784 whole entry, looked up): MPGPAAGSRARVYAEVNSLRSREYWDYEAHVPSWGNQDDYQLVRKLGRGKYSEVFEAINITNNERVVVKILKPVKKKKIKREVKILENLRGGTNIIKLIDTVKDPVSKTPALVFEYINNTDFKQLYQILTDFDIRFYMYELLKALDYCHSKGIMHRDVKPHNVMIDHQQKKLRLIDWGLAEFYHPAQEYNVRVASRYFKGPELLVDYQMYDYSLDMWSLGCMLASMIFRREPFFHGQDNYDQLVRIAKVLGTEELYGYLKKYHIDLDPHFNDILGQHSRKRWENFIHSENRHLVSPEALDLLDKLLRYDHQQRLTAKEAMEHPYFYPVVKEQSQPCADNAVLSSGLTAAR
Chain of PRKD1 (human) (Q15139 whole entry, looked up): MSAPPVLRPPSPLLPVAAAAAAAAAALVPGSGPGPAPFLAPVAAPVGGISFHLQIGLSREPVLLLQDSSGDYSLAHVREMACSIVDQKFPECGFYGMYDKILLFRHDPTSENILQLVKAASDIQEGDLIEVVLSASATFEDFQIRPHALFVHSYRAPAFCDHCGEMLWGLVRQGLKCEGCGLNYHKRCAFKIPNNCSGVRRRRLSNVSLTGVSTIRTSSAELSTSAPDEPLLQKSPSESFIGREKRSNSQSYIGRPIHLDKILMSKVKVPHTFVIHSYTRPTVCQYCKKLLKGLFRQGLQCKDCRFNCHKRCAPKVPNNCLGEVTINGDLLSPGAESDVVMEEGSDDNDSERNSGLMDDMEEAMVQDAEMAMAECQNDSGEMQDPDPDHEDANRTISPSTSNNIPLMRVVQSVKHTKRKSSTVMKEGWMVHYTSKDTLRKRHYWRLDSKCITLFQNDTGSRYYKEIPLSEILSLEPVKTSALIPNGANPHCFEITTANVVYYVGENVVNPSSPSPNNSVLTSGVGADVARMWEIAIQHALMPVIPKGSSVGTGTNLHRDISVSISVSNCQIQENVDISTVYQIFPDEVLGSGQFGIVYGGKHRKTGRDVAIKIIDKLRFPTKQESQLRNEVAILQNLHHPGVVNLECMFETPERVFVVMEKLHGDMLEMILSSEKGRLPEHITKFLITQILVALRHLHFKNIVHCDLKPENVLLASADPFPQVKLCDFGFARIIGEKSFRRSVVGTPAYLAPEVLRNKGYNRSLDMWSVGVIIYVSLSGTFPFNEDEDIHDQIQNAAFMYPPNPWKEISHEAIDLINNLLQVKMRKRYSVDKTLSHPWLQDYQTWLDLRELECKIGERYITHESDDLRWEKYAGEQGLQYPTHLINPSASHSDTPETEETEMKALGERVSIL
Chain of PRKD3 (human) (O94806 whole entry, looked up): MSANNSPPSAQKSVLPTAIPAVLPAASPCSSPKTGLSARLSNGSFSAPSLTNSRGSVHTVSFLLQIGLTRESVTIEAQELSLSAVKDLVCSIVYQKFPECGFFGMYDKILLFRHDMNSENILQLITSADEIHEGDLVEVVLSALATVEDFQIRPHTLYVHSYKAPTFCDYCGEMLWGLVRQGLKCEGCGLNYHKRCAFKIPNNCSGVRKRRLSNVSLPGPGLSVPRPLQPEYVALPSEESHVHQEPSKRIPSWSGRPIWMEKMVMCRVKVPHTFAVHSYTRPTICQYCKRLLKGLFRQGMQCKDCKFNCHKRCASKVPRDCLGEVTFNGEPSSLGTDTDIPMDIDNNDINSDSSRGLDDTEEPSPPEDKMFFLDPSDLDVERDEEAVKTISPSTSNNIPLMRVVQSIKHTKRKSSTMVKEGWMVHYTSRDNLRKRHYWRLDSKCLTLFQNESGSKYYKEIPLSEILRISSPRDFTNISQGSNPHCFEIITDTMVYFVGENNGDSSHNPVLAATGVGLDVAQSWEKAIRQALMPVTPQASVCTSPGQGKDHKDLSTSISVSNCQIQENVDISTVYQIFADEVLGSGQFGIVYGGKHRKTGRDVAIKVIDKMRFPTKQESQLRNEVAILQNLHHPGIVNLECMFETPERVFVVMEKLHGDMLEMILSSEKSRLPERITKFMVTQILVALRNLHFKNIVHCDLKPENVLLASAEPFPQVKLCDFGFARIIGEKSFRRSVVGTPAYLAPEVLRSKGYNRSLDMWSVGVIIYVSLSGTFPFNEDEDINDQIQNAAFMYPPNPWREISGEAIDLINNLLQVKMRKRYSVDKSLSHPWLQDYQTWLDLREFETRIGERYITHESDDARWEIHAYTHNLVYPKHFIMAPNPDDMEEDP
Chain of MAPKAPK5 (human) (Q8IW41 whole entry, looked up): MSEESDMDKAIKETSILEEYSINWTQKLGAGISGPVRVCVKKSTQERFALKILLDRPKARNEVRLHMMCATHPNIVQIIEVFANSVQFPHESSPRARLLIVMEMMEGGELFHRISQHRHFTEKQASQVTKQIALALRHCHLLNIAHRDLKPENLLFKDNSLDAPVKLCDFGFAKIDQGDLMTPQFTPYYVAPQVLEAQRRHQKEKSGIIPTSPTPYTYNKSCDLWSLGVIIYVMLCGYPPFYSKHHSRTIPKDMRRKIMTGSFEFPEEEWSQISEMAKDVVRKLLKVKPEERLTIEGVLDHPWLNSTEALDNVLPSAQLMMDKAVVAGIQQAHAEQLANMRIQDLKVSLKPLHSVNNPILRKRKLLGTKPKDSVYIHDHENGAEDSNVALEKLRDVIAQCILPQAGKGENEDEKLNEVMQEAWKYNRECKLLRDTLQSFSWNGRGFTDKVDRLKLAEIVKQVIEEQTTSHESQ
Chain of FGFR2 (human) (P21802 whole entry, looked up): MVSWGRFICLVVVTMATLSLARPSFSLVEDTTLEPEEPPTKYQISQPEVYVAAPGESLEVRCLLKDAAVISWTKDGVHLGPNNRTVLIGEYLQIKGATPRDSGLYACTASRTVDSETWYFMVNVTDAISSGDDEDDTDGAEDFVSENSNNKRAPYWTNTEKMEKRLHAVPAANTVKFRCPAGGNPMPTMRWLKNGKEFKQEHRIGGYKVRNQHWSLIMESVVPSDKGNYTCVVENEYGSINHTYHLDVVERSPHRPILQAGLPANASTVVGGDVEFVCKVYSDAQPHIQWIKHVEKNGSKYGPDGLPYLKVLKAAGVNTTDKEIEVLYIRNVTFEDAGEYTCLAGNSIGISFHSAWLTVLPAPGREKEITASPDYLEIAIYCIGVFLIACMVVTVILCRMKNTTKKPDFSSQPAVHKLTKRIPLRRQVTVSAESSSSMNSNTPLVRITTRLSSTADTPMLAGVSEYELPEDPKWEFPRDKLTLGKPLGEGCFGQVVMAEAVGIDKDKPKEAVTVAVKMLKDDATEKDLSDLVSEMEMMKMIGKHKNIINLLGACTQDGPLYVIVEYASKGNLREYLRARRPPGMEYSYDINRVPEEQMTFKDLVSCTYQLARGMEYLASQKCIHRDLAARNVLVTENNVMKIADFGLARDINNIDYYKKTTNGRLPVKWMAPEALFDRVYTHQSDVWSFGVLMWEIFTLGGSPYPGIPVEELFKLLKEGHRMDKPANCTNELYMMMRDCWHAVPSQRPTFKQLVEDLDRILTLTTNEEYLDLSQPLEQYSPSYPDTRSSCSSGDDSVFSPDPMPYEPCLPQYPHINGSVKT
Chain of CSNK1G3 (human) (Q9Y6M4 whole entry, looked up): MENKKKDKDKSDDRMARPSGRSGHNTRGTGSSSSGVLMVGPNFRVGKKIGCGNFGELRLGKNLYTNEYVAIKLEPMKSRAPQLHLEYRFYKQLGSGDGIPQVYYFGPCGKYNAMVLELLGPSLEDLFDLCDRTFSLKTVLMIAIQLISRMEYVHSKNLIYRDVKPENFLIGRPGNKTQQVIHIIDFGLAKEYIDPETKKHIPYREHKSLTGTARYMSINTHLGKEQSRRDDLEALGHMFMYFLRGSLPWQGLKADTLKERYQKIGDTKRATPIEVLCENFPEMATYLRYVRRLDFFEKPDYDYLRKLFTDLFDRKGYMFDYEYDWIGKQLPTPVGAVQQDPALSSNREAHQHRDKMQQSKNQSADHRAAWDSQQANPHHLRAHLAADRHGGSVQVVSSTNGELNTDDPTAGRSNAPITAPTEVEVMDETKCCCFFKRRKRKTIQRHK

Nc1cc(C(F)(F)F)c(-c2cc(N3CCOCC3)nc(N3CCOCC3)n2)cn1
inhibition (MAPKAPK5 (human)): -1% | inhibition [1]: 6% | inhibition (NTRK2 (human)): 9% | inhibition (AURKA (human)): 34% | inhibition (TBK1 (human)): 7% | inhibition (MAPK1 (human)): 6% | inhibition (FER (human)): 1% | inhibition (MAP4K2 (human)): 6% | inhibition (SGK3 (human)): 20% | inhibition (RPS6KB1 (human)): 8% | inhibition (PDGFRB (human)): 5% | inhibition (PRKD1 (human)): 5% | inhibition (MAP3K9 (human)): 2% | inhibition (GRK4 (human)): 2% | inhibition (AKT3 (human)): 3% | inhibition (GSK3A (human)): 5% | inhibition (PLK1 (human)): 1% | inhibition (FLT3 (human)): 18% | inhibition (CAMK1D (human)): 12% | inhibition (CSNK1G2 (human)): 0% | inhibition (CSNK2A2 (human)): -2% | inhibition (GRK5 (human)): 1% | inhibition (PHKG2 (human)): 3% | inhibition (MAPK11 (human)): 4% | inhibition (FGFR2 (human)): 2% | inhibition (MAPKAPK3 (human)): 1% | inhibition (MAP4K4 (human)): 1% | inhibition (CSNK1G3 (human)): -3% | inhibition (PRKACA (human)): 0% | inhibition (PAK4 (human)): -2% | inhibition (CSNK1A1 (human)): -1% | inhibition (EPHA3 (human)): -2% | inhibition (AKT2 (human)): 0% | inhibition (LYN (human)): 6% | inhibition (FLT1 (human)): 2% | inhibition (ERBB4 (human)): 10% | inhibition (KIT (human)): 39% | inhibition (MATK (human)): 0% | inhibition (PRKD3 (human)): 8% | inhibition (RPS6KA4 KD1 KD2 (human)): 6%
